Results taken from paper PMC4805251, “Novel Antimicrobial Peptides EeCentrocins 1, 2 and EeStrongylocin 2 from the Edible Sea Urchin Echinus esculentus Have 6-Br-Trp Post-Translational Modifications” (PLoS ONE, 2016).
Where “and” joins values, the source holds several entries; their conditions need not be identical. Equal entries are not always repeated. Where two headings read alike, the source gives them in different places. Ends that are not written are not given here.

How the values were obtained:
Type in all cases: cell-based
[1] = test system: S. epidermidis #1 (5179-R1)
Description: (§1) Organic phase extract, SPE eluates and HPLC-fractions were screened for antibacterial activity against two strains of Gram-positive and two strains of Gram-negative bacteria; Corynebacterium glutamicum (ATCC 13032), Staphylococcus aureus (ATCC 9144), Pseudomonas aeruginosa #1 (ATCC 27853) and Escherichia coli #1 (ATCC 25922). For extended antimicrobial bioactivity screening, the following bacterial strains were used, three strains of Gram-positive bacteria; S. epidermidis #1 (5179-R1) kindly provided by Holger Rohde, S. epidermidis #2, RP62A (ATCC 35984) and Bacillus subtilis (ATCC 23857) in addition to the Gram-negative P. aeruginosa #2, PA 01 (ATCC 15692, DSM 19880) and E. coli #2, NR 698 (MC4100/ptD4213).
(§2) Cultures stored at -80°C were smeared onto agar plates and cultured for 24 h at 35°C. One colony of each bacterial strain was transferred to 5 ml liquid Müller-Hinton (MH, Difco, Lawrence, KS, USA) medium in a glass tube and left shaking at room temperature overnight at 600 rpm. The cultures of actively growing bacteria (20 μl) were further inoculated in 5 ml MH medium and left shaking for 2 h at room temperature. The antibacterial assays were performed as previously described by. Briefly, the bacterial cultures were diluted with medium to 1.3–1.5 × 10^4 bacteria/ml final concentrations and an aliquot of 50 μl was added to each well in 96-well Nunclon^TM microtiter plates (Nagle Nunc Int., Denmark) preloaded with 50 μl test sample solutions, i.e. extracts, eluates or peptides.
(§3) The test plates were incubated for 24 h at 35°C with optical density (OD595) recorded every hour using an Envision 2103 multilabel reader, controlled by the Wallac Envision manager (PerkinElmer, CT, USA). Antibacterial activity was defined as a sample showing >90% inhibition (as measured by optical density) compared to the negative (growth) controls, consisting of bacteria and water. Oxytetracycline (20 μM) served as a positive (inhibition) control. The minimum inhibitory concentration (MIC) was defined as the lowest concentration of a sample displaying >90% inhibition.
(§4) ACN-phases and SPE eluates were tested with two-fold serial dilutions ranging from 5.0 to 0.005 mg/ml (5.0, 2.5, 1.25, 0.63, 0.31, 0.16, 0.08, 0.04, 0.02, 0.01, 0.005 mg/ml) whereas HPLC-fractions were tested undiluted for antibacterial activity. Pure, native peptides and synthetic peptides (described in section 2.11) were tested for antimicrobial activity in concentrations ranging from 100 to 0.1 μM in two-fold serial dilutions (100, 50, 25, 12.5, 6.25, 3.13, 1.56, 0.78, 0.39, 0.20, 0.10 μM). Antimicrobial assays involving natural peptides (i.e. fractionated natural material) were run only once due to limited quantities, whereas all other assays were run in triplicates.

[2] = test system: P. aeruginosa #2, PA 01 (ATCC 15692, DSM 19880)
Description: as §1, §2, §3, §4

[3] = test system: E. coli #2, NR 698 (MC4100/ptD4213)
Description: as §1, §2, §3, §4

Rhodotorula sp. = test system: Rhodotorula sp.
Description: (§5) The synthetic peptides (see section 2.11) were also screened for antifungal activity against Candida albicans (ATCC 10231), Saccharomyces cerevisiae, Rhodotorula sp., Aureobasidium pullulans and Cladosporium sp. The antifungal assay was performed as described previously. Briefly, fungal spores were dissolved in potato dextrose broth (Difco, Lawrence, KS, USA) to a concentration of 4 × 10^5 spores/ml. The spores (50 μl) were inoculated on 96-well Nunclon^TM microtiter plates containing the synthetic peptides (50 μl) dissolved in MQ-H2O. […] MIC was defined as the lowest concentration of peptide giving no visible fungal growth. The negative (growth) control contained medium and fungal solution.
as §4

Cladosporium sp. = test system: Cladosporium sp.
Description: as §5, §4

Saccharomyces cerevisiae = test system: Saccharomyces cerevisiae
Description: as §5, §4

[4] = test system: Candida albicans (ATCC 10231)
Description: as §5, §4

Aureobasidium pullulans = test system: Aureobasidium pullulans
Description: as §5, §4

human red blood cells = assay: Haemolytic activity assay; settings: human red blood cells in PBS, 1 h at 37°C, absorbance at 550 nm, 0.05% Triton X-100 = 100%, duplicates
Description: Synthesised peptide analogues of EeCentrocin 1 and 2 were screened for eukaryotic cell-toxicity with a haemolytic activity assay using human red blood cells as described previously. The assay was performed on 96-well U-shaped microtiter plates (Nagle Nunc) with 50 μl peptide sample, 40 μl phosphate-buffered saline (PBS) and 10 μl red blood cells. The final peptide concentrations ranged from 100 to 0.1 μM in two-fold serial dilutions. After one hour of incubation at 37°C in a shaker, the plate was centrifuged at 200 g for 5 min and the supernatants (60 μl) were carefully transferred to a new flat-bottomed polycarbonate microtiter plate (Nagle Nunc) and absorbance at 550 nm was measured on a Synergy H1 multimode reader (BioTek, VT, USA). Cell suspension added 0.05% Triton X-100 (Sigma-Aldrich, MO, USA) in PBS served as positive (100% haemolysis) control and cell suspension added PBS served as negative (0% haemolysis) control. The percent haemolysis was calculated using the formula [(Asample-Abaseline)/(Atriton-Abaseline)]×100. The experiment was performed in duplicates.

[5] = MH medium, 24 h at 35°C, OD595, >90% inhibition, value of Table 2, triplicates
[6] = potato dextrose broth, 24 h at room temperature, visual, no visible fungal growth, value of Table 2, triplicates

## WGHKLRSSWNKVKHAVKKGAGYASGACRVLGH [EeCentrocin 2 HC]
[1]; [5]
  MIC S. epidermidis #1: 3.13 µM
[1]; parallel 1 of three
  MIC raw data S. epidermidis #1: 3.13 µM
[1]; parallel 2 of three
  MIC raw data S. epidermidis #1: 3.13 µM
[1]; parallel 3 of three
  MIC raw data S. epidermidis #1: 1.56 µM
[2]; [5]
  MIC P. aeruginosa #2: 6.25 µM
[2]; parallel 1 of three
  MIC raw data P. aeruginosa #2: 6.25 µM
[2]; parallel 2 of three
  MIC raw data P. aeruginosa #2: 6.25 µM
[2]; parallel 3 of three
  MIC raw data P. aeruginosa #2: 3.13 µM
[3]; [5]
  MIC E. coli #2: 6.25 µM
[3]; parallel 1 of three
  MIC raw data E. coli #2: 6.25 µM
[3]; parallel 2 of three
  MIC raw data E. coli #2: 3.13 µM
[3]; parallel 3 of three
  MIC raw data E. coli #2: 3.13 µM
Rhodotorula sp.; parallel 1 of three
  MIC raw data Rhodotorula sp.: 3.13 µM
Rhodotorula sp.; parallel 2 of three
  MIC raw data Rhodotorula sp.: 3.13 µM
Rhodotorula sp.; parallel 3 of three
  MIC raw data Rhodotorula sp.: 3.13 µM
Rhodotorula sp.; [6]
  MIC Rhodotorula sp.: 3.13 µM
Cladosporium sp.; parallel 1 of three
  MIC raw data Cladosporium sp.: 12.5 µM
Cladosporium sp.; parallel 2 of three
  MIC raw data Cladosporium sp.: 12.5 µM
Cladosporium sp.; parallel 3 of three
  MIC raw data Cladosporium sp.: 12.5 µM
Cladosporium sp.; [6]
  MIC Cladosporium sp.: 12.5 µM
Saccharomyces cerevisiae; parallel 1 of three
  MIC raw data S. cerevisiae: 12.5 µM
Saccharomyces cerevisiae; parallel 2 of three
  MIC raw data S. cerevisiae: 12.5 µM
Saccharomyces cerevisiae; parallel 3 of three
  MIC raw data S. cerevisiae: 12.5 µM
Saccharomyces cerevisiae; [6]
  MIC S. cerevisiae: 12.5 µM
[4]; parallel 1 of three
  MIC raw data C. albicans: 50 µM
[4]; parallel 2 of three
  MIC raw data C. albicans: 50 µM
[4]; parallel 3 of three
  MIC raw data C. albicans: 25 µM
[4]; [6]
  MIC C. albicans: 50 µM
Aureobasidium pullulans; parallel 1 of three
  MIC raw data A. pullulans: 25 µM
Aureobasidium pullulans; parallel 2 of three
  MIC raw data A. pullulans: 25 µM
Aureobasidium pullulans; parallel 3 of three
  MIC raw data A. pullulans: 25 µM
Aureobasidium pullulans; [6]
  MIC A. pullulans: 25 µM
Human red blood cells; 25.0 μM
  % haemolysis: 11.7%
Human red blood cells; 50.0 μM
  % haemolysis: 18.9%
Human red blood cells; 100 μM
  % haemolysis: 56.3% and 56.4%
